Measured values reported in paper PMC8632988, “Inhibition of SYK and cSrc kinases can protect bone and cartilage in preclinical models of osteoarthritis and rheumatoid arthritis” (Scientific Reports, 2021).

Legend:
Assay in all cases: Kinase selectivity profile assay
Assay type in all cases: biochemical
LOK/STK10 = target: T1, LOK/STK10 (Homo sapiens, UniProt O94804); details: 500 nM; relative to DMSO; read-out: Residual enzymatic activity
T1 construct: purchased Reaction Biology Corporation
Summary of the method: (§1)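 Radiometric kinase assay run by a standard protocol. Unbound phosphate was removed by washing filters in phosphoric acid, and product radioactivity gave percent remaining kinase activity versus DMSO vehicle reactions. Run in duplicate.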

EPHB4 = target: T2, EPHB4 (Homo sapiens, UniProt P54760); details: 500 nM, relative to DMSO; for remaining activity at 0.5 µM: read-out: Residual enzymatic activity
T2 construct: purchased Reaction Biology Corporation
T2 sequence (P54760 16-987): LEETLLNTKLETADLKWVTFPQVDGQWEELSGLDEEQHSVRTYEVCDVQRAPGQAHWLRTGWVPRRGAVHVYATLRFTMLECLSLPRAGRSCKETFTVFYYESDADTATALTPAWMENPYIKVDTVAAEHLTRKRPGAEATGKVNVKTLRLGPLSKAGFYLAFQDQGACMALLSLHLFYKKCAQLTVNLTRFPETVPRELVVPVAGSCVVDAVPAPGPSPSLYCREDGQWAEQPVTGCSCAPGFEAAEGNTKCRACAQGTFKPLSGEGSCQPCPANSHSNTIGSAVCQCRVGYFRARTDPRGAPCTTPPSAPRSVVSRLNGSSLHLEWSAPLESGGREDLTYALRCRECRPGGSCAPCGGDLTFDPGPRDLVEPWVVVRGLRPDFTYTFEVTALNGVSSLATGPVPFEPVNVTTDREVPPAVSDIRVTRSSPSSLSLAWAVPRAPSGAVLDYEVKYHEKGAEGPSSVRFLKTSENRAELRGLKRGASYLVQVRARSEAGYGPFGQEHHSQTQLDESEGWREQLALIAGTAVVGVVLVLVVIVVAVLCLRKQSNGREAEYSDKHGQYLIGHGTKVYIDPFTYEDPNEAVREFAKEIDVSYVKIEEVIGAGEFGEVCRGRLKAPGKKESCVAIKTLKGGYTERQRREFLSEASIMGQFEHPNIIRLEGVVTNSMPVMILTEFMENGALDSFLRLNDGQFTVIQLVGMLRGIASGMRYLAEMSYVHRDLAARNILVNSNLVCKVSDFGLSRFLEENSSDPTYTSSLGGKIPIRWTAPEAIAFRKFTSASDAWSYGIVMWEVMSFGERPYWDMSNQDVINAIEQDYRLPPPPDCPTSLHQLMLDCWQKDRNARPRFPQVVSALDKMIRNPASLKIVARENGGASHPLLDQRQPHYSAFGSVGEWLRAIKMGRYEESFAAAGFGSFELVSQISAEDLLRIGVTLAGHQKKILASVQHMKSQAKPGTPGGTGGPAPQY
Summary of the method: as §1

PLK3 = target: T3, PLK3 (Homo sapiens, UniProt Q9H4B4); details: 500 nM; relative to DMSO; read-out: Residual enzymatic activity
T3 construct: purchased Reaction Biology Corporation
Summary of the method: as §1

RSK2 = target: T4, RSK2 (Homo sapiens, UniProt P51812); details: 500 nM; relative to DMSO; read-out: Residual enzymatic activity
T4 construct: purchased Reaction Biology Corporation
Summary of the method: as §1

c-MET = target: T5, c-MET (Homo sapiens, UniProt P08581); details: 500 nM; relative to DMSO; read-out: Residual enzymatic activity
T5 construct: purchased Reaction Biology Corporation
Summary of the method: as §1

MEK3 = target: T6, MEK3 (Homo sapiens, UniProt P46734); details: 500 nM; relative to DMSO; read-out: Residual enzymatic activity
T6 construct: purchased Reaction Biology Corporation
Summary of the method: as §1

T5 sequence (P08581 25-1390): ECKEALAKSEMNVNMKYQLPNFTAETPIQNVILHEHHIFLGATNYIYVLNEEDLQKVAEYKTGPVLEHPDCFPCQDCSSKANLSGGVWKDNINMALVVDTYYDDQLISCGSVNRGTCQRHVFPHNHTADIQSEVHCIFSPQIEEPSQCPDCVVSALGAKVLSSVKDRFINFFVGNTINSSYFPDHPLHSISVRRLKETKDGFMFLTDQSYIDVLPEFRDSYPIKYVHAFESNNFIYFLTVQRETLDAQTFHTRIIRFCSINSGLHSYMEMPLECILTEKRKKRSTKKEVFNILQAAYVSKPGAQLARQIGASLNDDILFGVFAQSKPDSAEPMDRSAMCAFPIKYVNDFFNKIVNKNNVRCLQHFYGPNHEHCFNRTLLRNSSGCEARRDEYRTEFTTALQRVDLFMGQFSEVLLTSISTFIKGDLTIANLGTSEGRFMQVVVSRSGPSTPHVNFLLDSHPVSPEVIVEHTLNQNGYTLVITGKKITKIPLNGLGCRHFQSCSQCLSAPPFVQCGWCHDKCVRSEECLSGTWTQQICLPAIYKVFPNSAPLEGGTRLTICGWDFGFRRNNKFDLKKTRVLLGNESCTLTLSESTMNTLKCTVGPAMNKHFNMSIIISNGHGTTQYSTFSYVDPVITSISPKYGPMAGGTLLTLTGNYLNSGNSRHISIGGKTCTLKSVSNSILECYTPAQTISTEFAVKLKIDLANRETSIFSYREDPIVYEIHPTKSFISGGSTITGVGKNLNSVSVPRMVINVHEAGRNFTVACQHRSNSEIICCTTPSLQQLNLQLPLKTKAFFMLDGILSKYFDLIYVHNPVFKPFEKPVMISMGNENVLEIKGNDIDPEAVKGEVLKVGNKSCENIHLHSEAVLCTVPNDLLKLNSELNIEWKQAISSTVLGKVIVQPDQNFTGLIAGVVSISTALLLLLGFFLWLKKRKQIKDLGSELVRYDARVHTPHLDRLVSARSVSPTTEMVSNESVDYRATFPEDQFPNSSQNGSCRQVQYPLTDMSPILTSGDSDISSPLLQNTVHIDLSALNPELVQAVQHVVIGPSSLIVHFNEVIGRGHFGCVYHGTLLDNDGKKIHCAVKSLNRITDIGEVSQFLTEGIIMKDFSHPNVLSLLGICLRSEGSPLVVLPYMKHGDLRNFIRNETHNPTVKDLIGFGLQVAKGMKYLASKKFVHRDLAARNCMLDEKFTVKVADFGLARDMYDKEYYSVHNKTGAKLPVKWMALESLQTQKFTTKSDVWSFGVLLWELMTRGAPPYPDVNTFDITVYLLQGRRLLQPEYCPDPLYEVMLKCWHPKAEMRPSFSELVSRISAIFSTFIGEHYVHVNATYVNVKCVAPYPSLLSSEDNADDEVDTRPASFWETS
T3 sequence (Q9H4B4 whole entry): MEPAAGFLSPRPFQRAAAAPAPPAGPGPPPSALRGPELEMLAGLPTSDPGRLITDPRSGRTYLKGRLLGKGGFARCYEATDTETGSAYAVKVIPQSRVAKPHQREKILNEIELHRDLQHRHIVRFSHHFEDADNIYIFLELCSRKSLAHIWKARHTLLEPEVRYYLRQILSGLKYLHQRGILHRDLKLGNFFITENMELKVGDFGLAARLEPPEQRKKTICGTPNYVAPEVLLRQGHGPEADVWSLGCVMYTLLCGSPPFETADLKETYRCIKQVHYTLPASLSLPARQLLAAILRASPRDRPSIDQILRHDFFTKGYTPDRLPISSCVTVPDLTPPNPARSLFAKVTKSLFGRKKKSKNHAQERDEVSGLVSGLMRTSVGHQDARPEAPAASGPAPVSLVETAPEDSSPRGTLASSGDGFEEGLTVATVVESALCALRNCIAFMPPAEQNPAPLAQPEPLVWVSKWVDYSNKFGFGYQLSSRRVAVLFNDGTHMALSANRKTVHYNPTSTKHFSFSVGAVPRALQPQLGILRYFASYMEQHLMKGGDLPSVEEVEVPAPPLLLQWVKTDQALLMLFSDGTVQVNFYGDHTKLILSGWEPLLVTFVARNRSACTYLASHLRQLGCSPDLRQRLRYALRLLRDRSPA
T6 sequence (P46734 whole entry): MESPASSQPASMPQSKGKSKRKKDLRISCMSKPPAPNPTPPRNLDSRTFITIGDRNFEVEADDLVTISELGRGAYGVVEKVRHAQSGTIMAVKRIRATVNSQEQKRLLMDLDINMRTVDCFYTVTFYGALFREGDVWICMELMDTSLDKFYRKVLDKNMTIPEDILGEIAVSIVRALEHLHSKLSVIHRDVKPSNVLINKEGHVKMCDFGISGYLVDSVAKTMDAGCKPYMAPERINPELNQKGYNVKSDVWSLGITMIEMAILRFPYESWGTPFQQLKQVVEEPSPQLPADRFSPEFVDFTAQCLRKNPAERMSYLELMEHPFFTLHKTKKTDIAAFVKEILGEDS
T4 sequence (P51812 whole entry): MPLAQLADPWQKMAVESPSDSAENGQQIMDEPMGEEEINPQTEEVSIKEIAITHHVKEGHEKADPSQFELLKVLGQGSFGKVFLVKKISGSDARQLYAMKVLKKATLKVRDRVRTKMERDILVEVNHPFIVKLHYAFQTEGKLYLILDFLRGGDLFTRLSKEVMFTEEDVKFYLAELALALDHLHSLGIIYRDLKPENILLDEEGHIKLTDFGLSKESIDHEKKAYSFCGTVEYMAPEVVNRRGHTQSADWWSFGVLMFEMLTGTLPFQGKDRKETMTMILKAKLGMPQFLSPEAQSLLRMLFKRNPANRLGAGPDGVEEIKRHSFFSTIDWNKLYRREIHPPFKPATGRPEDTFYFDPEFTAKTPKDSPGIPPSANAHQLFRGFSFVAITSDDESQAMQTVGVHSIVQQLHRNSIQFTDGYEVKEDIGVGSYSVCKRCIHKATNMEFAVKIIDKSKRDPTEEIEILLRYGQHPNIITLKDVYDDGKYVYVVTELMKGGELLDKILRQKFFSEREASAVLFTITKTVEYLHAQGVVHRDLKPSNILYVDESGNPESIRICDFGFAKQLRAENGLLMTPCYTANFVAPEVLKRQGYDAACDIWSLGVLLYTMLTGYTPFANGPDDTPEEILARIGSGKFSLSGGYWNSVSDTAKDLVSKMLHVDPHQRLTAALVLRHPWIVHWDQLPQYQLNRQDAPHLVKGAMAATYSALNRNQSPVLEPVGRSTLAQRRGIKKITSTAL
T1 sequence (O94804 whole entry): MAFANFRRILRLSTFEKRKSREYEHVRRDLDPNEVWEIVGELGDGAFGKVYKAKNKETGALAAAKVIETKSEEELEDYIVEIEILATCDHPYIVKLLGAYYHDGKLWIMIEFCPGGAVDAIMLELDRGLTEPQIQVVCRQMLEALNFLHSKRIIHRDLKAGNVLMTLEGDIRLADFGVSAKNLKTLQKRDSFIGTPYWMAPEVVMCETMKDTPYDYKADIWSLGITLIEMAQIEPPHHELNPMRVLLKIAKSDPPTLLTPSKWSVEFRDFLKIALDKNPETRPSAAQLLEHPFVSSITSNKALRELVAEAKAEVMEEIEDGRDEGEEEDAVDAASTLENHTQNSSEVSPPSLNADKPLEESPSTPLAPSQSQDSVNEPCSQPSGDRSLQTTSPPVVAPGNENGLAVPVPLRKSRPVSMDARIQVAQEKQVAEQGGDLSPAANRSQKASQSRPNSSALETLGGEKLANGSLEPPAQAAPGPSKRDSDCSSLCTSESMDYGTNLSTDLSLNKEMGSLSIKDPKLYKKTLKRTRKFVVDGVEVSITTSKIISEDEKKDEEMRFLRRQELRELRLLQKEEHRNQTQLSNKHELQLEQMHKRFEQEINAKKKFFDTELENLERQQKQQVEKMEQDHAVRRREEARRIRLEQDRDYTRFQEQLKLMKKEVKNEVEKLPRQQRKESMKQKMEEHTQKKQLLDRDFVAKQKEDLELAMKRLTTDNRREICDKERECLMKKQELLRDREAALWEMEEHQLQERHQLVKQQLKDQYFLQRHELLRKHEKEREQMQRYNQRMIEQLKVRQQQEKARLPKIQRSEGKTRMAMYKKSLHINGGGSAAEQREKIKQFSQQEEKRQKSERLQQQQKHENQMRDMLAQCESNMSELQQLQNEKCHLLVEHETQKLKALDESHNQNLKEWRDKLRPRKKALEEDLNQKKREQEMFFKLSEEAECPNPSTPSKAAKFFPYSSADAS

SMILES | remaining activity at 0.5 µM (LOK/STK10) | Residual enzymatic activity (EPHB4) | remaining activity at 0.5 µM (EPHB4) | remaining activity at 0.5 µM (PLK3) | remaining activity at 0.5 µM (RSK2) | remaining activity at 0.5 µM (c-MET) | remaining activity at 0.5 µM (MEK3)
COc1cc(Nc2ncnc(Nc3cc4c(cn3)NC(=O)C(C)(C)O4)n2)cc(OC)c1OC [MT-SYK-03] | 75.7% | 64.6% | > 54% | 97.6% | 104% | 108% | 119%
COc1cc(Nc2ncc(F)c(Nc3ccc4c(n3)NC(=O)C(C)(C)O4)n2)cc(OC)c1OC [R406, reference compound] | 37.4% |  | 51.2% | 53.1% | 56.9% | 71.4% | 131%
